Results published in patent US20260176245A1, “MODULATORS OF SORTILIN ACTIVITY” (Vesper Bio ApS, priority 2022, published 2026).

Target: T1, Human (6-His) Sortilin (Homo sapiens, UniProt Q99523)
T1 construct: 6-His; purchased RnD Systems
T1 sequence (Q99523 78-755 limits assumed): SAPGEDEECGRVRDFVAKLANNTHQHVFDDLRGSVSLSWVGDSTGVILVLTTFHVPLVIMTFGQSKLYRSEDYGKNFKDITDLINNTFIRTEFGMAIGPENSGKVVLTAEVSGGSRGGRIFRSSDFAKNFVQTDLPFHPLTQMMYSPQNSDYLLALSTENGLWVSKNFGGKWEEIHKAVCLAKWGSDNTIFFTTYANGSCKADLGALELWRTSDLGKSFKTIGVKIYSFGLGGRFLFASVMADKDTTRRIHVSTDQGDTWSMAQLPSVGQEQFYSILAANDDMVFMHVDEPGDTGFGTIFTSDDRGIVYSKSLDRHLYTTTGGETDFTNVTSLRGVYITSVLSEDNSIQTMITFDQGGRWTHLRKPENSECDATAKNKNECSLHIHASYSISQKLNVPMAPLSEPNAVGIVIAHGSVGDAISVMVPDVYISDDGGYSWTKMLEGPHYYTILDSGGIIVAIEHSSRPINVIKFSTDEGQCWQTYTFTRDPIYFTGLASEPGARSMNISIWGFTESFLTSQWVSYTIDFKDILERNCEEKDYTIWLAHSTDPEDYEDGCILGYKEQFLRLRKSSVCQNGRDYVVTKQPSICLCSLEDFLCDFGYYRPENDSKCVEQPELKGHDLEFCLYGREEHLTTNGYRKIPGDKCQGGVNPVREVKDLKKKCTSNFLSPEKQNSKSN
Assay: Human Sortilin GCI (Grating-Coupled Interferometry) binding assay
Conditions: Creoptix WAVE-RAPID, single concentration, immobilised Human (6-His) Sortilin, 1:1 kinetic binding model; read-out: h-Sortilin GCI KD
Protocol: The exemplified compounds of the invention were tested in a Grating-Coupled Interferometry (GCI) Sortilin binding assay. The Equilibrium dissociation constant (KD) is a measure of the propensity of a complex (i.e: a ligand and receptor) to dissociate and is used to describe the affinity of an interaction between the constituents of the complex (i.e: a ligand and receptor). The skilled person will recognise that the lower the KD value, the less of the compound needed to achieve the desired effect, and as a result, the chances of undesirable off-target effects are reduced.
Compound affinity was determined by measuring the association and dissociation of compounds to Human (6-His) Sortilin (RnD Systems) using a Creoptix Wave instrument (Creoptix-Malvern Panalytical). Both Human (6-His) Sortilin immobilisation and compound evaluation were performed in HBS-N running buffer: 10 mM HEPES pH 7.4, 150 mM NaCl, 1% DMSO-Cytiva which was filtered and degassed for 15 minutes before use.
A 4PCH WAVEchip (Creoptix-Malvern Panalytical) was conditioned prior to immobilisation using 0.2×HBS-N running buffer with 0.1 M Borate pH 9.0, 1 M NaCl (Xantec Bioanalytics) injected across all flow cells. A buffer exchange was performed to 1×HBS-N running buffer and Human (6-His) Sortilin was immobilised in pH 5.0 Acetate solution (Cytiva) via amine coupling following EDC/NHS (Cytiva) surface activation and then passivated via injection of 50 mM Tris pH 7.4.
Compounds were tested in ‘WAVE-RAPID’ assays at a single concentration (usually: 1 μM, 10 µM or 100 µM) in time-response format (short pulses of increasing duration) using either ‘Weak-Binders’ (Settings: 400 μl/min flow rate, 40 Hz acquisition rate, 5 seconds association time and 20 seconds dissociation time) or ‘Intermediate Binders’ (Settings: 100 μl/min flow rate, 10 Hz acquisition rate, 25 seconds association time and 300 seconds dissociation time) settings. Which was deemed most appropriate was based upon the affinity and kinetics of the compound tested.
DMSO calibration was performed as per manufacturers requirements by injection of running buffer containing DMSO 0.5% above that of the running buffer DMSO (1.5% in that instance) every 20 cycles. All data was double referenced (blank and reference-channel subtracted) with KD values calculated by fitting to a ‘1:1 kinetic’ binding model using ‘WAVEcontrol’ software (Creoptix—Malvern Panalytical).

## CC(=O)N[C@@H](C)C(=O)N[C@@](C)(CCC(C)(C)C)C(=O)O [Example 2, (2S)-2-[(2S)-2-acetamidopropanamido]-2,5,5-trimethylhexanoic acid]
  Kd: 4.64 µM

## CC(=O)N[C@@H](Cc1ccccc1)C(=O)N[C@@](C)(CCC(C)(C)C)C(=O)O [Example 4, (2S)-2-[(2S)-2-acetamido-3-phenylpropanamido]-2,5,5-trimethylhexanoic acid]
  Kd: 2 µM

## CC(=O)NCC(=O)N[C@@](C)(CCC(C)(C)C)C(=O)O [Example 1, 2-(2-acetamidoacetamido)-2,5,5-trimethylhexanoic acid]
  Kd: 12.4 µM

## CC[C@H](C)[C@H](NC(C)=O)C(=O)N[C@@](C)(CCC(C)(C)C)C(=O)O [Example 3, (2S)-2-[(2S,3S)-2-acetamido-3-methylpentanamido]-2,5,5-trimethylhexanoic acid]
  Kd: 1.3 µM
